Measured values published in patent publication US9192662B2, “Methods using immunomodulatory compounds for modulating level of CD59” (Celgene Corporation, priority 2008, dated 2015).

Experiments:
CD59 mRNA [1] = experiment: CD59 mRNA levels in several in vitro cellular models in Affymetrix gene array experiments; assay type: cell-based; conditions: primary T cells, primary monocytes, NK cells, cultured PBMCs from normal and CLL patients, Namalwa Burkitt's lymphoma cell line
Text: In certain embodiments, the immunomodulatory compounds provided herein, such as 3-(4-amino-1-oxo-1,3-dihydro-isoindol-2-yl-piperidine-2,6-dione (lenalidomide), 4-amino-2-(2,6-dioxopiperidin-3-yl)isoindoline-1,3-dione or N-{[2-(2,6-dioxo(3-piperidyl)-1,3-dioxoisoindolin-4-yl]methyl}cyclopropyl-carboxamide, induce increase in the mRNA levels of CD59 in several in vitro cellular models in Affymetrix gene array experiments (both primary cells and cell lines). In certain aspects, this increase is found in primary T cells, primary monocytes, NK cells, cultured PBMCs from normal and CLL patients, and the Namalwa Burkitt's lymphoma cell line.
Namalwa cells are cultured in RPM1 supplemented with 10% fetal bovine serum. Cells are treated with vehicle control (0.1% DMSO) or 4-amino-2-(2,6-dioxopiperidin-3-yl)isoindoline-1,3-dione (10 μM) or lenalidomide (10 μM) for 8 hours and 24 hours. Cells are harvested and RNA isolated as described above. Methods for Affymetrix gene array analysis are as described above.
PBMCs are isolated from whole blood from CLL patients (MD Anderson) using ficoll gradient centrifugation. Cells are treated with 4-amino-2-(2,6-dioxopiperidin-3-yl)isoindoline-1,3-dione (1 μM), lenalidomide (10 μM) or N-{[2-(2,6-dioxo(3-piperidyl)-1,3-dioxoisoindolin-4-yl]methyl}cyclopropyl-carboxamide (10 μM) for 24 and 48 hours. Samples from five CLL patients are analyzed individually. Cells are harvested and RNA isolated as described above. Methods for Affymetrix gene array analysis are as described above.

CD59 mRNA [2] = experiment: CD59 mRNA levels in unstimulated monocytes (Affymetrix gene array); assay type: cell-based, Human; conditions: CD14+ monocytes from healthy volunteers, after treatment with 10 nM or more, FIG. 2
Description: Human PBMCs were isolated from buffy coat from three healthy volunteers using ficoll gradient centrifugation. CD14+ monocytes were isolated from each batch of PBMCs using anti-CD14 microbeads (Miltenyi). Cells were treated with 0.1% DMSO or 4-amino-2-(2,6-dioxopiperidin-3-yl)isoindoline-1,3-dione (1 μM) 1 or lenalidomide (10 μM) for 30 minutes. Thereafter the cells were either left unstimulated or stimulated with 100 ng/ml LPS and incubated for 6 hours. After the incubation period the cells were lysed in TRI reagent (Sigma) for RNA isolation. The RNAs isolated using the TRI reagent RNA isolation protocol, were column cleaned (Qiagen) and the RNAs kept separate from the donors, were pooled for cDNA synthesis. Briefly, double-stranded cDNA will be synthesized using 2-5 μg of total RNA. Biotin-labeled cRNA will be synthesized using MessageAmp aRNA kit (Ambion), 15 μg of cRNA fragmented and hybridized to each Affymetrix human UI 33A array. The above procedures will be done twice for each RNA sample to obtain replicate biotin-labeled probes. Data analysis was performed using GeneSpring (Agilent).

CD59 mRNA [3] = experiment: CD59 mRNA levels in alpha-CD3/CD28 stimulated T cells (Affymetrix gene array); assay type: cell-based, Human; conditions: CD4+ T cells, anti-CD3/anti-CD28 stimulation; 3, 6, 12 and 24 hours; lenalidomide 10 μM, CC-4047 1 μM; FIG. 3
Description: Human PBMCs were isolated from buffy coat from four healthy volunteers using ficoll gradient centrifugation CD4+ T cells were isolated from each batch of PBMCs using anti-CD4 microbeads (Miltenyi). Cells were treated with 0.1% DMSO or 4-amino-2-(2,6-dioxopiperidin-3-yl)isoindoline-1,3-dione (1 μM) 1 or lenalidomide (10 μM) in the presence or absence of anti-CD3/anti-CD28 stimulation over a time course which included 3, 6, 12 and 24 hours of treatment. Cells were harvested at indicated times and RNA isolated as described above. Methods for Affymetrix gene array analysis were as described above.

CD59 mRNA [4] = experiment: CD59 mRNA levels in PBMCs (Affymetrix gene array); assay type: cell-based, Human; conditions: PBMCs from healthy volunteers; 24, 48 and 72 hours; lenalidomide 10 μM, CC-4047 1 μM; FIG. 1
Description: Human PBMCs were isolated from buffy coat from healthy volunteers using ficoll gradient centrifugation. PBMCs were treated with 4-amino-2-(2,6-dioxopiperidin-3-yl)isoindoline-1,3-dione (1 μM) or lenalidomide (10 μM) or vehicle control (0.1% DMSO) for 24 hours, 48 hours, and 72 hours. Cells were harvested and RNA isolated as above. Methods for Affymetrix gene array analysis were as described above.

O=C1CCC(N2C(=O)c3cccc(CNC(=O)C4CC4)c3C2=O)C(=O)N1 (stereo not drawn) [N-{[2-(2,6-dioxo(3-piperidyl)-1,3-dioxoisoindolin-4-yl]methyl}cyclopropyl-carboxamide]
increase: mRNA levels of CD59 in several in vitro cellular models (CD59 mRNA [1])

Nc1cccc2c1CN(C1CCC(=O)NC1=O)C2=O (stereo not drawn) [lenalidomide, 3-(4-amino-1-oxo-1,3-dihydro-isoindol-2-yl)-piperidine-2,6-dione]
increase: CD59 mRNA levels in unstimulated monocytes (CD59 mRNA [2]) | CD59 mRNA levels in α-cd3/cd28 stimulated T cells (CD59 mRNA [3]) | mRNA levels of CD59 in several in vitro cellular models (CD59 mRNA [1]) | CD59 mRNA levels in PBMC cells (CD59 mRNA [4])

Nc1cccc2c1C(=O)N(C1CCC(=O)NC1=O)C2=O (stereo not drawn) [CC-4047, 4-amino-2-(2,6-dioxopiperidin-3-yl)isoindoline-1,3-dione]
increase: CD59 mRNA levels in unstimulated monocytes (CD59 mRNA [2]) | CD59 mRNA levels in α-cd3/cd28 stimulated T cells (CD59 mRNA [3]) | mRNA levels of CD59 in several in vitro cellular models (CD59 mRNA [1]) | CD59 mRNA levels in PBMC cells (CD59 mRNA [4])
